# According to publication PMC10667816, “A Cell‐Penetrant Peptide Disrupting the Transcription Factor CP2c Complexes Induces Cancer‐Specific Synthetic Lethality” (Advanced Science, 2023):
# Where a SMILES comes first, the peptide text is derived from it.
# Tested on: cisplatin‐resistant cancer cells
# Test: Growth inhibition in cisplatin‐resistant cancer cells
# Format: cell-based, human
# Conditions: cisplatin‐resistant variants of Hep3B, HCT116, MDA‐MB‐231
# Method: Information of the cell lines is listed in Table S1 (Supporting Information), including their origin and culture conditions. All cell lines were cultured at 37 °C, 5% CO2 incubator. MDA‐MB‐231 (LM1), HepG2, Hep3B, and HCT116 cell lines were authenticated with short tandem repeat markers based on ATCC information. All cell lines tested negative for mycoplasma contamination. Transient downregulation of the gene of interest was conducted by siRNA transfection using Lipofectamine 2000 (Thermo Fisher, 11668019) according to the manufacturer's instructions. Information about siRNAs is provided in Table S2 (Supporting Information). […] For erythroid terminal differentiation experiments, differentiation was assessed by hemoglobin staining using a 0.2% (w/v) tetramethylbenzidine solution (Sigma–Aldrich, T0440) in 0.6% hydrogen peroxide, 3% acetic acid for 10 min in dark condition. Benzidine‐positive or negative cell numbers were counted under the inverted microscope BX50 (Olympus) at 200 × magnification. […] After each synchronization, cells were fixed at 4‐h intervals for 24 h with ACP52C treatment, and the cell cycle was analyzed by Propidium Iodide (PI) staining or intracellular protein was analyzed by immunofluorescence. […] This development period was repeated four times for one round, after which GI50 concentrations were re‐assessed in each resistant cell line. […]
structure (smiles),measurement,value
CC(=O)N[C@@H](CC(N)=O)C(=O)N[C@@H](Cc1ccc(O)cc1)C(=O)N1CCC[C@H]1C(=O)N[C@@H](CCC(N)=O)C(=O)N[C@@H](CCCNC(=N)N)C(=O)N1CCC[C@H]1C(=O)N[C@@H](CS)C(=O)N[C@@H](CCCNC(=N)N)C(=O)NCC(=O)N[C@@H](CC(=O)O)C(=O)N[C@@H](CCCCN)C(=O)NCC(=O)N1CCC[C@H]1C(=O)N[C@@H](CC(=O)O)C(=O)N[C@@H](CS)C(N)=O [ACP52C] (Ac-NYPQRPCRGDKGPDC-NH2),anticancer activity in cisplatin‐resistant cells,effectiveness in targeting cisplatin‐resistant cancer cells
